Literature values, collected in publication PMC6311893, “Computational prediction of plasma protein binding of cyclic peptides from small molecule experimental data using sparse modeling techniques” (BMC Bioinformatics, 2018).

System: plasma protein
Conditions: fraction bound to plasma protein; small molecule dataset, sheet 1-SM (Set Dte = test, Dtr = training); ref Ingle et al.; cited from earlier work

Compound	PPB (fb)
O=C(O)c1cn(-c2ccc(C(F)(F)F)cc2)c2cc(N3CCNCC3)c(F)cc2c1=O [3c(p-CF3)]	0.42
CC(=O)OCC(=O)[C@@]12N=C(C)O[C@@H]1C[C@H]1[C@@H]3CCC4=CC(=O)C=C[C@]4(C)[C@H]3[C@@H](O)C[C@@]12C [deflazacort]	0.4
Cc1cccc(C)c1OCC(=O)N[C@@H](Cc1ccccc1)[C@@H](O)C[C@H](Cc1ccccc1)NC(=O)[C@H](C(C)C)N1CCCNC1=O [lopinavir]	0.99
CCn1cc(C(=O)O)c(=O)c2cc(F)c(N3CCNC(C)C3)c(F)c21 (stereo not shown) [lomefloxacin]	0.12
CC(C)(Oc1ccc(CCNC(=O)c2ccc(Cl)cc2)cc1)C(=O)O [bezafibrate]	0.95
CCC1(c2ccc(N)cc2)CCC(=O)NC1=O (stereo not shown) [aminoglutethimide]	0.24
Cc1ccc(NC(=O)c2ccc(CN3CCNCC3)cc2)cc1Nc1nccc(-c2cccnc2)n1 [N-desmethyl-imatinib]	0.7
COCC1CN(c2ccc(OCc3cccc(C#N)c3)cc2)C(=O)O1 (stereo not shown) [cimoxatone]	0.94
O=c1[nH]c2ccccc2n1C1CCN(CCCC(c2ccc(F)cc2)c2ccc(F)cc2)CC1 [pimozide]	0.95
C=CCOc1ccccc1OCC(O)CNC(C)C (stereo not shown) [oxprenolol]	0.77
CC(C(=O)O)c1ccc2c(c1)[nH]c1ccc(Cl)cc12 (stereo not shown) [Carprofen]	0.99
CCN1CCCC1CNC(=O)c1cc(S(N)(=O)=O)ccc1OC (stereo not shown) [sulpiride]	0.25
Nc1ncn([C@H]2C[C@H](O)[C@@H](CO)O2)c(=O)n1 [Decitabine]	0
O=C(NCC1CCCCN1)c1cc(OCC(F)(F)F)ccc1OCC(F)(F)F (stereo not shown) [Flecainide]	0.5
Clc1ccc(COC(Cn2ccnc2)c2ccc(Cl)cc2Cl)c(Cl)c1 (stereo not shown) [miconazole]	0.95
CC(CC1c2ccccc2CCc2ccccc21)CN(C)C (stereo not shown) [butriptyline]	0.95
CCC1(c2ccccc2)NC(=O)N(C)C1=O (stereo not shown) [mephenytoin]	0.4
CCOC(=O)[C@H](CCc1ccccc1)N[C@H]1CCCN2CCC[C@@H](C(=O)O)N2C1=O [cilazapril]	0.25
COC(CC(=O)NC1C(=O)N2C1SC(C)(C)C2C(=O)O)c1ccc(Cl)s1 (stereo not shown) [penicillin75]	0.84
CC(=O)[C@]1(O)Cc2c(O)c3c(c(O)c2[C@@H](O[C@H]2C[C@H](N)[C@H](O)[C@H](C)O2)C1)C(=O)c1ccccc1C3=O [Idarubicin]	0.95
C=CCN1C[C@H](C(=O)N(CCCN(C)C)C(=O)NCC)C[C@@H]2c3cccc4[nH]cc(c34)C[C@H]21 [cabergoline]	0.41
NC[C@H]1O[C@H](O[C@H]2[C@H](O)[C@@H](O[C@H]3O[C@H](CO)[C@@H](O)[C@H](N)[C@H]3O)[C@H](N)C[C@@H]2N)[C@H](N)C[C@@H]1O [Tobramycin]	0.05
NS(=O)(=O)c1cc2c(cc1C(F)(F)F)NC(Cc1ccccc1)NS2(=O)=O (stereo not shown) [bendrofluazide]	0.94
Cc1cnc(C(=O)O)c[n+]1[O-] [acipimox]	0.02

Same assay, conditions: fraction bound to plasma protein; small molecule dataset, sheet 1-SM, Set Dtr; ref Ingle et al.; cited from earlier work

Compound	PPB (fb)
O=c1n(CCCN2CCN(c3cccc(Cl)c3)CC2)nc2ccccn12 [trazodone]	0.92
CCCn1c(=O)[nH]c(=O)c2[nH]cnc21 [Enprofylline]	0.45
Nc1ccc(O)c(C(=O)O)c1 [Aminosalicylic acid__ 5-]	0.61
CCN(CC)CCNC(=O)c1ccc(N)cc1 [Procainamide]	0.16
O=C(N[C@H](CO)[C@H](O)c1ccc([N+](=O)[O-])cc1)C(Cl)Cl [Chloramphenicol]	0.61
COc1c(N2CCNC(C)C2)c(F)cc2c(=O)c(C(=O)O)cn(C3CC3)c12 (stereo not shown) [Gatifloxacin]	0.2
CCCCc1nc(Cl)c(CO)n1Cc1ccc(-c2ccccc2-c2nn[nH]n2)cc1 [Losartan]	0.99
COc1cccc(OC)c1C(=O)N[C@@H]1C(=O)N2[C@@H]1SC(C)(C)[C@@H]2C(=O)O [Methicillin]	0.48
CC(CCc1ccccc1)NCC(O)c1ccc(O)c(C(N)=O)c1 (stereo not shown) [Labetalol]	0.5
COc1ccccc1OCCNCC(O)COc1cccc2[nH]c3ccccc3c12 (stereo not shown) [Carvedilol]	0.96
Oc1ncnc2[nH]ncc12 [Allopurinol]	0.02
COCC(=O)Nc1c(I)c(C(=O)NCC(O)CO)c(I)c(C(=O)N(C)CC(O)CO)c1I (stereo not shown) [Iopromide]	0.01
CN1CCN(CCCCN2C(=O)CN(/N=C/c3ccc(-c4ccc(Cl)cc4)o3)C2=O)CC1 [Azimilide]	0.94
O=C1CC[C@@]2(O)[C@H]3Cc4ccc(O)c5c4[C@@]2(CCN3CC2CC2)[C@H]1O5 [Naltrexone]	0.2
Cc1ccc(S(=O)(=O)NC(=O)NN2CCCCCC2)cc1 [tolazamide]	0.97
CC(=O)NC(CS)C(=O)O (stereo not shown) [Acetylcysteine__ N-]	0.83
COc1cccc2c1C(=O)c1c(O)c3c(c(O)c1C2=O)C[C@@](O)(C(=O)CO)C[C@@H]3O[C@H]1C[C@H](N)[C@@H](O)[C@H](C)O1 [Epirubicin]	0.75
NNc1nncc2ccccc12 [Hydralazine]	0.87
CCN(CC)C(=O)/C(C#N)=C/c1cc(O)c(O)c([N+](=O)[O-])c1 [Entacapone]	0.98
C[C@H](O)C(=O)Nc1c(I)c(C(=O)NC(CO)CO)c(I)c(C(=O)NC(CO)CO)c1I [Iopamidol]	0
CCn1cc(C(=O)O)c(=O)c2cc(F)c(N3CCNCC3)nc21 [Enoxacin]	0.26
NC(N)=Nc1nc(CSCCC(N)=NS(N)(=O)=O)cs1 [Famotidine]	0.16
NCCCC[C@H](N[C@@H](CCc1ccccc1)C(=O)O)C(=O)N1CCC[C@H]1C(=O)O [Lisinopril]	0.05
COc1ccnc(C[S+]([O-])c2nc3ccc(OC(F)F)cc3[nH]2)c1OC (stereo not shown) [Pantoprazole]	0.98
CCC[C@@H]1C[C@@H](C(=O)N[C@@H]([C@H]2O[C@H](SC)[C@H](O)[C@@H](O)[C@H]2O)[C@@H](C)O)N(C)C1 [Lincomycin]	0.76

Same assay, conditions: fraction bound to plasma protein; small molecule dataset, sheet 1-SM; ref Ingle et al.; cited from earlier work

Compound	PPB (fb)
C[C@]1(Cn2ccnn2)[C@H](C(=O)O)N2C(=O)C[C@H]2S1(=O)=O [tazobactam]	0.23
CCN(CC)CCNC(=O)c1cc(S(C)(=O)=O)ccc1OC [tiapride]	0
OCCN1CCN(CCCN2c3ccccc3Sc3ccc(C(F)(F)F)cc32)CC1 [fluphenazine]	0.95
COC(C(=O)NC1C(=O)N2C1SC(C)(C)C2C(=O)O)c1c(Cl)cccc1Cl (stereo not shown) [penicillin41]	0.84
C[C@@H](c1ncncc1F)[C@](O)(Cn1cncn1)c1ccc(F)cc1F [Voriconazole]	0.58
Nc1cc(N2CCCCC2)nc(N)[n+]1[O-] [minoxidil]	0.03
CCCCCNC(=N)N/N=C/c1c[nH]c2ccc(OC)cc12 [Tegaserod]	0.98
CC1(C)SC2C(NC(=O)COc3ccccc3F)C(=O)N2C1C(=O)O (stereo not shown) [penicillin52]	0.91
CC(CC(c1ccccc1)c1ccccc1)NC(C)(C)C (stereo not shown) [Terodiline]	0.88
CN(c1nccc(=O)[nH]1)C1CCN(c2nc3ccccc3n2Cc2ccc(F)cc2)CC1 [mizolastine]	0.98
CC/C=C/C/C=C/C/C=C/C/C=C/C=C/C(O)CCCC(=O)O (stereo not shown) [hepe]	0.99
Cc1noc(NS(=O)(=O)c2ccc(N)cc2)c1C [Sulfisoxazole]	0.92
CCN(CC)CCOC(=O)C(Cc1cccc2ccccc12)CC1CCCO1 (stereo not shown) [nafronyl]	0.9
CCc1ccc(CCOc2ccc(CC3SC(=O)NC3=O)cc2)nc1 (stereo not shown) [pioglitazone]	0.99
CC(Oc1ccccc1)C(=O)NC1C(=O)N2C1SC(C)(C)C2C(=O)O (stereo not shown) [penicillin48]	0.82
CC(COc1ccccc1)NC(C)C(O)c1ccc(O)cc1 (stereo not shown) [isoxsuprine]	0
Cc1nnc(NS(=O)(=O)c2ccc(N)cc2)s1 [sulfamethizole]	0.9
COc1ccc2c(c1)N(C[C@H](C)CN(C)C)c1ccccc1S2 [methotrimeprazine]	0.98
CCC1(C)CC(=O)NC1=O (stereo not shown) [ethosuximide]	0
COc1cc2nc(N3CCN(C(=O)C4CCCO4)CC3)nc(N)c2cc1OC (stereo not shown) [Terazosin]	0.91
O=P(O)(O)C(Sc1ccc(Cl)cc1)P(=O)(O)O [tiludronic acid]	0.9
CC1Cc2ccccc2N1NC(=O)c1ccc(Cl)c(S(N)(=O)=O)c1 (stereo not shown) [indapamide]	0.76
CCC(Cc1c(I)cc(I)c(N)c1I)C(=O)O (stereo not shown) [iopanoic acid]	0.79
Cc1c(O)cccc1C(=O)N[C@@H](CSc1ccccc1)[C@H](O)CN1C[C@H]2CCCC[C@H]2C[C@H]1C(=O)NC(C)(C)C [nelfinavir]	0.99
COC1=CC(=O)C[C@@H](C)[C@]12Oc1c(Cl)c(OC)cc(OC)c1C2=O [griseofulvin]	0.8

Same assay, conditions: plasma; cited from earlier work

Compound	PPB (fb)
C[C@]12CC[C@H](O)C[C@H]1CC[C@@H]1[C@@H]2CC[C@]2(C)[C@@H](C3=CC(=O)OC3)CC[C@]12O [Digitoxigenin]	0.93
O=C1Nc2ccc(Cl)cc2C(c2ccccc2Cl)=NC1O (stereo not shown) [Lorazepam]	0.91
CN[C@@H](C)[C@@H](O)c1ccccc1 [pseudoephedrine]	0
mepacrine	0.9
CC1(C)S[C@@H]2[C@H](NC(=O)[C@H](N)c3ccccc3)C(=O)N2[C@H]1C(=O)O [Ampicillin]	0.16
O=[N+]([O-])OCC(CO[N+](=O)[O-])O[N+](=O)[O-] [nitroglycerin]	0.6
phenprocoumon	0.99
Oxytetracycline	0.2
CCC[S+]([O-])c1ccc2[nH]c(NC(=O)OC)nc2c1 (stereo not shown) [albendazole sulfoxide]	0.7
O=P1(NCCCl)OCCCN1CCCl (stereo not shown) [Ifosfamide]	0
Atovaquone	1
